In article PMC11345829, “Discovery of Potent Isoquinolinequinone N-Oxides to Overcome Cancer Multidrug Resistance” (Journal of Medicinal Chemistry, 2024):
Read-outs that look alike come from different tables or passages of the source.

Key:
[1] = test system: NCI60 tumor cell line panel; test: NCI60 one-dose screen (10 μM), mean growth; assay type: cell-based, human; details: for activity at 10 µM: Homo sapiens; for activity at 10 µM / mean growth (%, 10 μM): 48 h, one dose 10 μM, mean cell growth of 60 tumor cell lines
Experimental: (§1) S2.1 NCI Screening Assay Experimental details
(§2) NCI Screening Assay Experimental: Cancer cell growth assays (NCI60 screening) 5,6 One-dose study: Tested compounds were initially solubilised in DMSO, diluted into RPMI 1640 and 5% fetal bovine serum/L-glutamine, and added to 96-well plates containing cell lines previously cultured for 24 h. After 48 h incubation, the media were removed, and the cells were fixed and stained with sulforhodamine B to determine overall percent growth/ total protein content. Unbound dye was removed with five washes of 1% acetic acid, and the plates were allowed to air dry. The dye was then resolubilised in Tris buffer, and the colorimetric absorbance was measured (515 nm). Growth inhibition was measured relative to the response generated from proliferating cells cultured under identical conditions for 48 h. […]

[2] = test system: NCI60 tumor cell line panel; test: NCI60 five-dose screen, mean over panel; assay type: cell-based, human; details: five dose
Text: (§3) The concentration−response curve generated enables the determination of three criteria, GI50 (drug concentration at which 50% of cell growth is inhibited), total growth inhibition (TGI) and LC50 (drug concentration at which 50% of tumor cells are killed) which can be used to compare effectiveness against any compound tested in the screen since its inception.
as §1
(§4) NCI Screening Assay Experimental: Cancer cell growth assays (NCI60 screening) 5,6 One-dose study: Tested compounds were initially solubilised in DMSO, diluted into RPMI 1640 and 5% fetal bovine serum/L-glutamine, and added to 96-well plates containing cell lines previously cultured for 24 h. After 48 h incubation, the media were removed, and the cells were fixed and stained with sulforhodamine B to determine overall percent growth/ total protein content. Unbound dye was removed with five washes of 1% acetic acid, and the plates were allowed to air dry. The dye was then resolubilised in Tris buffer, and the colorimetric absorbance was measured (515 nm). Growth inhibition was measured relative to the response generated from proliferating cells cultured under identical conditions for 48 h. Data from one-dose experiments pertains to the percentage growth at […]
(§5) Five-dose study: Serial 5 × 10-fold dilution from an initial DMSO stock solution was performed, prior to incubation at each individual concentration (10 nM, 100 nM, 1 μM, 10 μM and 100 μM). Using seven absorbance measurements (time zero (Tz), control growth (C), and test growth in the presence of drug at the five concentration levels (Ti)), the percentage growth was calculated at each of the drug concentrations levels. Percentage growth inhibition was calculated as: [(Ti − Tz)/(C − Tz)] × 100 for concentrations for which Ti ≥ Tz, [(Ti − Tz)/Tz] × 100 for concentrations for which Ti < Tz. Three dose response parameters were calculated for each experimental agent. […]
(§6) was calculated from [(Ti − Tz)/(C − Tz)] × 100 = 50, which is the drug concentration resulting in a 50% reduction in the net protein increase (as measured by sulforhodamine B staining) in control cells during the drug incubation. The drug concentration resulting in total growth inhibition (TGI) was calculated from Ti = Tz. The LC50 (concentration of drug resulting in a 50% reduction in the measured protein at the end of the drug treatment as compared to that at the beginning) indicating a net loss of cells following treatment was calculated from [(Ti − Tz)/Tz] × 100 = −50. Values were calculated for each of these three parameters if the level of activity was reached; however, if the effect was not reached or was exceeded, the value for that parameter was expressed as greater or less than the maximum or minimum concentration tested.

COLO-205 = test: NCI60 five-dose GI50; assay type: cell-based; details: Homo sapiens, colon
Text: as §3, §1, §4, §5, §6

K-562 = test: NCI60 five-dose GI50; assay type: cell-based; details: Homo sapiens, K562, five dose
Text: as §3, §1, §4, §5, §6

LOX-IMVI = test: NCI60 five-dose GI50; assay type: cell-based; details: Homo sapiens, melanoma
Text: as §3, §1, §4, §5, §6

MCF-7 = test: NCI60 five-dose GI50; assay type: cell-based; details: Homo sapiens, MCF7, breast
Text: as §3, §1, §4, §5, §6

NCI-ADR/RES = test: NCI60 five-dose GI50; assay type: cell-based; details: Homo sapiens, MDR ovarian
Text: as §3, §1, §4, §5, §6

OVCAR-3 = test: NCI60 five-dose GI50; assay type: cell-based; details: Homo sapiens, ovarian
Text: as §3, §1, §4, §5, §6

UACC-62 = test: NCI60 five-dose GI50; assay type: cell-based; details: Homo sapiens, melanoma
Text: as §3, §1, §4, §5, §6

OVCAR-8 = test: NCI60 five-dose GI50; assay type: cell-based; details: Homo sapiens, ovarian
Text: as §3, §1
as §2, with “nm).” for “nm). Growth inhibition was measured relative to the response generated from proliferating cells cultured under identical conditions for 48 h.”
as §5, §6

[3] = Homo sapiens, across 57-60 cell lines (number given per compound), read-out: Mean of GI50 as Log 10 Concentration (SD) (converted)
[4] = mean over 52 human tumor cell lines common to all analogues, read-out: mean GI50

SMILES | activity at 10 µM [1] [%] | GI50 [2, 3] [nM] | GI50 [2, 4] [nM] | GI50 (COLO-205) [nM] | GI50 (K-562; leukemia) [nM] | GI50 (LOX-IMVI) [nM] | GI50 (MCF-7) [nM] | GI50 (NCI-ADR/RES) [nM] | GI50 (OVCAR-3) [nM] | GI50 (UACC-62) [nM] | GI50 (OVCAR-8) [nM] | mean growth (%, 10 μM) [1] [%] | one-dose screen outcome ([1]; 10 μM) | GI50 (K-562) [nM]
COC(=O)c1c2c(c(C)[n+]([O-])c1C)C(=O)C(NCc1ccc(OC)cc1)=CC2=O [Compound 6] | 19 | 2040 | 2120 | 839 | 2670 | 2410 | 1410 | 2420 | 315 | 1720 | 2780 | – | – | –
COC(=O)c1c2c(c(C)[n+]([O-])c1C)C(=O)C=C(NCc1ccc(OC)cc1)C2=O [Compound 7] | -34 | 1530 | 900 | 325 | 491 | 408 | 300 | 419 | 284 | 374 | 452 | -34 | – | –
COC(=O)c1c2c(c(C)[n+]([O-])c1C)C(=O)C(NCc1cccc(OC)c1)=CC2=O [Compound 8] | 23 | 2210 | 2290 | 1100 | 2980 | 2360 | 1650 | 2360 | 512 | 1700 | 2520 | – | – | –
COC(=O)c1c2c(c(C)[n+]([O-])c1C)C(=O)C=C(NCc1cccc(OC)c1)C2=O [Compound 9] | -52 | 607 | 740 | 252 | 416 | 302 | 286 | 441 | 259 | 306 | 339 | -52 | – | –
COC(=O)c1c2c(c(C)[n+]([O-])c1C)C(=O)C(NCc1ccc(Cl)cc1)=CC2=O [Compound 10] | 57 | – | – | – | – | – | – | – | – | – | – | – | did not achieve sufficient growth inhibition | –
COC(=O)c1c2c(c(C)[n+]([O-])c1C)C(=O)C=C(NCc1ccc(Cl)cc1)C2=O [Compound 11] | -32 | 412 | 550 | 238 | 58 | 39 | 267 | 267 | 208 | 55 | 292 | -32 | – | < 150
COC(=O)c1c2c(c(C)[n+]([O-])c1C)C(=O)C(NCc1cccc(Cl)c1)=CC2=O [Compound 12] | 12 | 1340 | 1480 | 388 | 2170 | 1760 | 1100 | 1640 | 322 | 1240 | 1520 | – | – | –
COC(=O)c1c2c(c(C)[n+]([O-])c1C)C(=O)C=C(NCc1cccc(Cl)c1)C2=O [Compound 13] | -42 | 405 | 620 | 263 | 109 | 94 | 270 | 352 | 243 | 144 | 297 | -42 | – | < 150
COC(=O)c1c2c(c(C)[n+]([O-])c1C)C(=O)C(NCc1ccc(Br)cc1)=CC2=O [Compound 14] | 18 | 1640 | 1800 | 659 | 2380 | 1670 | 1330 | 1970 | 301 | 1170 | 1830 | – | – | –
COC(=O)c1c2c(c(C)[n+]([O-])c1C)C(=O)C=C(NCc1ccc(Br)cc1)C2=O [Compound 15] | -50 | 515 | 780 | 313 | 47 | 84 | 289 | 439 | 273 | 46 | 465 | -50 | – | < 150
COC(=O)c1c2c(c(C)[n+]([O-])c1C)C(=O)C(NCc1ccc(F)c(F)c1)=CC2=O [Compound 16] | 11 | 1780 | 1910 | 673 | 2230 | 1980 | 1480 | 2300 | 333 | 1530 | 1960 | – | – | –
COC(=O)c1c2c(c(C)[n+]([O-])c1C)C(=O)C=C(NCc1ccc(F)c(F)c1)C2=O [Compound 17] | -49 | 421 | 580 | 260 | 113 | 64 | 290 | 345 | 258 | 68 | 299 | -49 | – | < 150
COC(=O)c1c2c(c(C)[n+]([O-])c1C)C(=O)C(NCc1ccc(F)c(Cl)c1)=CC2=O [Compound 18] | 4 | 1800 | 1510 | 588 | 2670 | 2340 | 1320 | 2080 | 306 | 1380 | 2380 | – | – | –
COC(=O)c1c2c(c(C)[n+]([O-])c1C)C(=O)C=C(NCc1ccc(F)c(Cl)c1)C2=O [Compound 19] | -47 | 290 | 560 | 211 | 51 | 31 | 229 | 321 | 199 | 41 | 249 | -47 | – | < 150
